Literature values as cited in article PMC4381553, “Acute and Chronic Toxicity, Cytochrome P450 Enzyme Inhibition, and hERG Channel Blockade Studies with a Polyherbal, Ayurvedic Formulation for Inflammation” (BioMed Research International, 2015).
Read-outs that look alike come from different tables or passages of the source.

Tests used:
CYP3a [1] = details: only at very high dose (200 μg/mL), human liver microsome
CYP3a [2] = details: only at very high dose (200 μg/mL), rat liver microsome

## CC1=C(CO)C(=O)O[C@@H]([C@@H](C)[C@H]2CC[C@H]3[C@@H]4CC=C5C[C@@H](O[C@@H]6O[C@H](CO[C@@H]7O[C@H](CO)[C@@H](O)[C@H](O)[C@H]7O)[C@@H](O)[C@H](O)[C@H]6O)C[C@H](O)[C@]5(C)[C@H]4CC[C@]23C)C1 [Withanoside IV]
CYP3a [1]
  inhibitory activity of CYP3a: some inhibitory activity
CYP3a [2]
  inhibitory activity of CYP3a: some inhibitory activity
